From patent US20260347347A1, “2-AZA-AND 2-OXABICYCLO[2.1.1]HEXANE DERIVATIVES AS FACTOR XIIA ENZYME INHIBITORS” (KALVISTA PHARMACEUTICALS LIMITED, priority 2022, published 2026) come the findings set out here.

A word on the IC50: it is the point on the concentration scale where inhibition reaches its midpoint.

The structures appear in SMILES notation.

The first assay has as its target T1, Human Factor XIIa (Homo sapiens, UniProt P00748).
T1 construct: purchased Enzyme Research Laboratories
T1 sequence (P00748 373-615 limits assumed): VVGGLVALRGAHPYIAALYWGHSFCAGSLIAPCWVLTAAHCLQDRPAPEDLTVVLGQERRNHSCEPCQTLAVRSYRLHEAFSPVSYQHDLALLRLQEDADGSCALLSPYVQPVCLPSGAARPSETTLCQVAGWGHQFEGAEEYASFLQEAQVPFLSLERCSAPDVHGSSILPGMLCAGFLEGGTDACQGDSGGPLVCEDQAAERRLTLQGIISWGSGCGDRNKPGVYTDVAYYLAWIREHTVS
T1 sequence (P00748 20-372 partner limits assumed): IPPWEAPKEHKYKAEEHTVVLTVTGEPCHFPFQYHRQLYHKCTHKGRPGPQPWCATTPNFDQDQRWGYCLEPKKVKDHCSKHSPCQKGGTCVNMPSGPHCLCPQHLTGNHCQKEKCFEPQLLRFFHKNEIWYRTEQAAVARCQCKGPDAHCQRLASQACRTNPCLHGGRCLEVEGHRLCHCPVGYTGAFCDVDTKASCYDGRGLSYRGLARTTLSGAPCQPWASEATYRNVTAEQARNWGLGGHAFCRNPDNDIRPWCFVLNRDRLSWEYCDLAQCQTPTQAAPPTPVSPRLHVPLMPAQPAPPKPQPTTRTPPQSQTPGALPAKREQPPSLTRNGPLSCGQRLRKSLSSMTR
The assay is described as follows: Determination of FXIIa inhibition (in vitro IC50 assay, fluorogenic substrate H-DPro-Phe-Arg-AFC). Format: biochemical. The note with it: human Factor XIIa; fluorogenic substrate H-DPro-Phe-Arg-AFC at Km concentration; 5 min, 25 °C; class symbols H1/H2 for % inhibition at top concentration. In outline: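 Human FXIIa incubated at 25 °C with compound and H-DPro-Phe-Arg-AFC at its Km concentration. Linear fluorescence increase monitored over 5 min, expressed as % of uninhibited activity; IC50 is concentration giving 50% inhibition.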
As to `Cc1cc(OCC23CN(C(=O)NC4(c5ccccc5)CC4)C(CNc4cccnc4)(C2)C3)cc(=O)n1C` [Example 55, 4-(((1,6-dimethyl-2-oxo-1,2-dihydropyridin-4-yl)oxy)methyl)-N-(1-phenylcyclopropyl)-1-((pyridin-3-ylamino)methyl)-2-azabicyclo[2.1.1]hexane-2-carboxamide], the “Human FXIIa inhibition (compounds that did not achieve 50% inhibition)” value is recorded as “H2 (>20% inhibition @ 100 μM)”.
As for `Cc1cc(OCC23CN(C(=O)NC4(c5ccccc5)CC4)C(CNc4cccnc4F)(C2)C3)cc(=O)n1C` [Example 67, 4-(((1,6-dimethyl-2-oxo-1,2-dihydropyridin-4-yl)oxy)methyl)-1-(((2-fluoropyridin-3-yl)amino)methyl)-N-(1-phenylcyclopropyl)-2-azabicyclo[2.1.1]hexane-2-carboxamide], the “Human FXIIa inhibition (compounds that did not achieve 50% inhibition)” value was “H2 (>20% inhibition @ 100 μM)”.
As to `Cc1cc(OCC23CN(C(=O)NC4(c5ccccc5)CC4)C(CNc4ccccc4C#N)(C2)C3)cc(=O)n1C` [Example 68, 1-(((2-cyanophenyl)amino)methyl)-4-(((1,6-dimethyl-2-oxo-1,2-dihydropyridin-4-yl)oxy)methyl)-N-(1-phenylcyclopropyl)-2-azabicyclo[2.1.1]hexane-2-carboxamide], the “Human FXIIa inhibition (compounds that did not achieve 50% inhibition)” value was “H1 (>20% inhibition @ 40 μM)”.

The same assay, now with this note: human Factor XIIa; fluorogenic substrate H-DPro-Phe-Arg-AFC at Km concentration; 5 min, 25 °C; class symbols; read-out: Human FXIIa IC50.
Consider `Cc1ncccc1NCC12CC(COc3cc(C)n(C)c(=O)c3)(CN1C(=O)NC1(c3ccccc3)CC1)C2` [Example 56, 4-(((1,6-dimethyl-2-oxo-1,2-dihydropyridin-4-yl)oxy)methyl)-1-(((2-methylpyridin-3-yl)amino)methyl)-N-(1-phenylcyclopropyl)-2-azabicyclo[2.1.1]hexane-2-carboxamide], for which the IC50 fell in the range of 40000 to 100000 nM.
With `Cc1cc(OCC23CN(C(=O)NC4(c5ccccc5)CC4)C(CNc4cccc5c(N)nccc45)(C2)C3)cc(=O)n1C` [Example 57, 1-(((1-aminoisoquinolin-5-yl)amino)methyl)-4-(((1,6-dimethyl-2-oxo-1,2-dihydropyridin-4-yl)oxy)methyl)-N-(1-phenylcyclopropyl)-2-azabicyclo[2.1.1]hexane-2-carboxamide], the IC50 was in the range of 1 to 10 nM.
In the case of `Cc1cc(OCC23CN(C(=O)NC4(c5ccccc5)CC4)C(CNc4ccc(N)nc4)(C2)C3)cc(=O)n1C` [Example 58, 1-(((6-aminopyridin-3-yl)amino)methyl)-4-(((1,6-dimethyl-2-oxo-1,2-dihydropyridin-4-yl)oxy)methyl)-N-(1-phenylcyclopropyl)-2-azabicyclo[2.1.1]hexane-2-carboxamide], the IC50 is 10000 to 40000 nM.
Still for that read-out and setting: then `Nc1nccc2c(NCC34CC(COc5cc6n(c(=O)c5)CCC6)(CN3C(=O)NC3(c5ccccc5)CC3)C4)cccc12` [Example 59, 1-(((1-Aminoisoquinolin-5-yl)amino)methyl)-4-(((5-oxo-1,2,3,5-tetrahydroindolizin-7-yl)oxy)methyl)-N-(1-phenylcyclopropyl)-2-azabicyclo[2.1.1]hexane-2-carboxamide], with 1 to 10 nM.
`Cn1ccc(OCC23CN(C(=O)NC4C5CC6CC(C5)CC4C6)C(CNc4cccc5c(N)nccc45)(C2)C3)cc1=O` (stereo not drawn) [Example 61, N-(adamantan-2-yl)-1-(((1-aminoisoquinolin-5-yl)amino)methyl)-4-(((1-methyl-2-oxo-1,2-dihydropyridin-4-yl)oxy)methyl)-2-azabicyclo[2.1.1]hexane-2-carboxamide]: the IC50 was 10 to 100 nM.
With `Cn1ccc(OCC23CN(C(=O)Nc4cc(F)cc5c4OCOC5)C(CNc4cccc5c(N)nccc45)(C2)C3)cc1=O` [Example 62, 1-(((1-aminoisoquinolin-5-yl)amino)methyl)-N-(6-fluoro-4H-benzo[d][1,3]dioxin-8-yl)-4-(((1-methyl-2-oxo-1,2-dihydropyridin-4-yl)oxy)methyl)-2-azabicyclo [2.1.1]hexane-2-carboxamide], the IC50 fell in the range of 1 to 10 nM.
The same measure, in the same setting: in the case of `Cn1ccc(OCC23CN(C(N)=O)C(CNc4cccc5c(N)nccc45)(C2)C3)cc1=O` [Example 63, 1-(((1-Aminoisoquinolin-5-yl)amino)methyl)-4-(((1-methyl-2-oxo-1,2-dihydropyridin-4-yl)oxy)methyl)-2-azabicyclo[2.1.1]hexane-2-carboxamide] it was 10 to 100 nM; in that of `Cn1ccc(OCC23CN(C(=O)NC4(c5ccccc5)CCOCC4)C(CNc4cccc5c(N)nccc45)(C2)C3)cc1=O` [Example 64, 1-(((1-aminoisoquinolin-5-yl)amino)methyl)-4-(((1-methyl-2-oxo-1,2-dihydropyridin-4-yl)oxy)methyl)-N-(4-phenyltetrahydro-2H-pyran-4-yl)-2-azabicyclo[2.1.1]hexane-2-carboxamide], 10 to 100 nM; in that of `Cc1cc(OCC23CN(C(=O)Nc4ccc5c(c4)CCC5)C(CNc4cccc5c(N)nccc45)(C2)C3)cc(=O)n1C` [Example 65, 1-(((1-Aminoisoquinolin-5-yl)amino)methyl)-N-(2,3-dihydro-1H-inden-5-yl)-4-(((1,6-dimethyl-2-oxo-1,2-dihydropyridin-4-yl)oxy)methyl)-2-azabicyclo[2.1.1]hexane-2-carboxamide], 1 to 10 nM.
Take `Cn1ccc(OCC23CN(C(=O)NC(C)(C)c4ccccc4)C(CNc4cccc5c(N)nccc45)(C2)C3)cc1=O` [Example 66, 1-(((1-Aminoisoquinolin-5-yl)amino)methyl)-4-(((1-methyl-2-oxo-1,2-dihydropyridin-4-yl)oxy)methyl)-N-(2-phenylpropan-2-yl)-2-azabicyclo[2.1.1]hexane-2-carboxamide]: the IC50 is 1 to 10 nM.
As for `Cn1ccc(OCC23CN(C(=O)NC4(c5ccccc5)COC4)C(CNc4cccc5c(N)nccc45)(C2)C3)cc1=O` [Example 69, 1-(((1-aminoisoquinolin-5-yl)amino)methyl)-4-(((1-methyl-2-oxo-1,2-dihydropyridin-4-yl)oxy)methyl)-N-(3-phenyloxetan-3-yl)-2-azabicyclo [2.1.1]hexane-2-carboxamide], the IC50 fell in the range of 1 to 10 nM.
Still for that read-out and setting: then `Cc1cc(OCC23CN(C(=O)N4CCC(c5ccccc5)CC4)C(CNc4cccc5c(N)nccc45)(C2)C3)cc(=O)n1C` [Example 70, 4-((1-(((1-aminoisoquinolin-5-yl)amino)methyl)-2-(4-phenylpiperidine-1-carbonyl)-2-azabicyclo[2.1.1]hexan-4-yl)methoxy)-1,6-dimethylpyridin-2(1H)-one], with 10 to 100 nM.
Still for that read-out and setting: in the case of `Cc1cc(OCC23CN(C(=O)NC4(c5ccccc5)CC4)C(CNc4cccnc4O)(C2)C3)cc(=O)n1C` [Example 71, 4-(((1,6-Dimethyl-2-oxo-1,2-dihydropyridin-4-yl)oxy)methyl)-1-(((2-hydroxypyridin-3-yl)amino)methyl)-N-(1-phenylcyclopropyl)-2-azabicyclo[2.1.1]hexane-2-carboxamide] it was 40000 to 100000 nM.
As for `Cc1cc(OCC23CN(C(=O)N4CC(C5CCOCC5)C4)C(CNc4cccc5c(N)nccc45)(C2)C3)cc(=O)n1C` [Example 72, 4-((1-(((1-aminoisoquinolin-5-yl)amino)methyl)-2-(3-(tetrahydro-2H-pyran-4-yl)azetidine-1-carbonyl)-2-azabicyclo[2.1.1]hexan-4-yl)methoxy)-1,6-dimethylpyridin-2(1H)-one], the IC50 lay within 10 to 100 nM.
As to `COCCOCCNC(=O)N1CC2(COc3ccn(C)c(=O)c3)CC1(CNc1cccc3c(N)nccc13)C2` [Example 73, 1-(((1-aminoisoquinolin-5-yl)amino)methyl)-N-(2-(2-methoxyethoxy)ethyl)-4-(((1-methyl-2-oxo-1,2-dihydropyridin-4-yl)oxy)methyl)-2-azabicyclo[2.1.1]hexane-2-carboxamide], the IC50 was in the range of 10 to 100 nM.
Consider `Cn1ccc(OCC23CN(C(=O)NC4CCC(S(=O)(=O)C5CCCCC5)CC4)C(CNc4cccc5c(N)nccc45)(C2)C3)cc1=O` (stereo not drawn) [Example 74, 1-(((1-aminoisoquinolin-5-yl)amino)methyl)-N-(4-(cyclohexylsulfonyl)cyclohexyl)-4-(((1-methyl-2-oxo-1,2-dihydropyridin-4-yl)oxy)methyl)-2-azabicyclo[2.1.1]hexane-2-carboxamide], for which the IC50 lay within 10 to 100 nM.
For the molecule `Cn1ccc(OCC23CN(C(=O)NC4CC5(CCC5)C4)C(CNc4cccc5c(N)nccc45)(C2)C3)cc1=O` [Example 75, 1-(((1-aminoisoquinolin-5-yl)amino)methyl)-4-(((1-methyl-2-oxo-1,2-dihydropyridin-4-yl)oxy)methyl)-N-(spiro[3.3]heptan-2-yl)-2-azabicyclo[2.1.1]hexane-2-carboxamide], the IC50 lay in the range of 10 to 100 nM.
With `Cn1ccc(OCC23CN(C(=O)NCC4(C)COC4)C(CNc4cccc5c(N)nccc45)(C2)C3)cc1=O` [Example 76, 1-(((1-aminoisoquinolin-5-yl)amino)methyl)-4-(((1-methyl-2-oxo-1,2-dihydropyridin-4-yl)oxy)methyl)-N-((3-methyloxetan-3-yl)methyl)-2-azabicyclo[2.1.1]hexane-2-carboxamide], the IC50 fell in the range of 10 to 100 nM.
